Measurements: patent US20230150929A1, “SELECTIVE NON-CYCLIC NUCLEOTIDE ACTIVATORS FOR THE CAMP SENSOR EPAC1” (The Board of Regents of The University of Texas System, priority 2020, published 2023)

Tests used:
Format in all cases: cell-based
[1] = test system: PKA; experiment: PKA activation (VASP phosphorylation, western blot) in U2OS-EPAC1 cells; conditions: 100 µM test compound, FIG. 5
Protocol: FIG. 5. PKA activation results of representative newly discovered EPAC1 agonists. U2OS cells stably transfected with EPAC1 were treated with 100 µM of test compounds, cyclic nucleotide EPAC1 agonist 2 or 10 µM of forskolin and rolipram (F/R), cyclic AMP elevating agents, as a positive control. Active, phosphorylated VASP (P-VASP) was visualized using a phospho-specific, anti-VASP antibody. None of the test compounds promoted VASP phosphorylation in cells.
PKA and GPCR Selectivity. To investigate the EPAC selectivity of these EPAC agonists, compounds 25g, 25n and 25q were selected for further PKA activation studies, and the results are shown in FIG. 5. PKA activation was assessed by monitoring phosphorylation state of a downstream PKA effector, vasodilator-stimulated phosphoprotein (VASP).
(§1) SDS-PAGE and Western Blotting. Samples were prepared by mixing equal volumes of cell lysate and 2x SDS sample loading buffer and denaturing for 5 min at 95° C., unless indicated otherwise. Protein samples were separated by SDS-PAGE on 10% (v/v) polyacrylamide gels, for EPAC1 and VASP, or on 12.5% (v/v), for Rap1, and then transferred to nitrocellulose membranes. Membranes were then blocked for 1 h at room temperature in 5% (w/v) non-fat dry milk or 5% (w/v) BSA in Tris-buffered saline containing 0.1% (v/v) Tween 20, followed by an overnight incubation with primary antibody diluted in blocking buffer at 4° C. Subsequently, the membranes were incubated with appropriate horseradish peroxidase-conjugated secondary antibodies for 1 h at room temperature. For signal detection the SuperSignal West Pico PLUS Chemiluminescent Substrate (Thermo Scientific) was used. Images were acquired using the Fusion FX7 camera platform (Vilber). Densitometry was performed with ImageJ.

[2] = biological target: T1, EPAC1 (Homo sapiens, UniProt O95398); experiment: EPAC1 immunoprecipitation with activation-selective antibody in HEK293T cells; set-up: expressed in transfected cells; conditions: versus vehicle-treated control, FIG. 10
T1 sequence (O95398 1-923): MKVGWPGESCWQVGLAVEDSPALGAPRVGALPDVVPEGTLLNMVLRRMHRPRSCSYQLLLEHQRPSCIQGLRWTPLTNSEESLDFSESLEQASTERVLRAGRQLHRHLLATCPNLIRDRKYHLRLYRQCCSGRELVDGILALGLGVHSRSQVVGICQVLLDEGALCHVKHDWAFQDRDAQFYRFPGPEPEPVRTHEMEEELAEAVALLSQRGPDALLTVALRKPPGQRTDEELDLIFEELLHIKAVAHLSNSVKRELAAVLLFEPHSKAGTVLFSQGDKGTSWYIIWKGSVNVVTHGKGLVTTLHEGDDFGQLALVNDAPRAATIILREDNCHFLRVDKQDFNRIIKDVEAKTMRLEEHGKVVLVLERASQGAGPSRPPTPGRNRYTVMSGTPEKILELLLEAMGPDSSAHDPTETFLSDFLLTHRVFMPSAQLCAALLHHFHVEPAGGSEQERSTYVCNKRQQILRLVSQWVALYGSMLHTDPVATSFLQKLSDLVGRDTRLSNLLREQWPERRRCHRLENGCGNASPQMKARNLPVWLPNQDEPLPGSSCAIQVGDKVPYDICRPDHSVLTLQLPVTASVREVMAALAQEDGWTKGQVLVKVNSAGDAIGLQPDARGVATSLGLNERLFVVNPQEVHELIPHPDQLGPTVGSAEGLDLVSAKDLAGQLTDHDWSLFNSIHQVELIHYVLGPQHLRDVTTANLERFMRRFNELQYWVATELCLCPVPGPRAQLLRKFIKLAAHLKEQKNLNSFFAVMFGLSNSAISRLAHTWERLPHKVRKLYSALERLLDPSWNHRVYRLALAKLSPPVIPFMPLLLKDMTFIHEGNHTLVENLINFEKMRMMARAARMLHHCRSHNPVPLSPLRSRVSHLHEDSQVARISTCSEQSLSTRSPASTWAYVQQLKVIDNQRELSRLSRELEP
Protocol: FIG. 10. Ability of selected compounds to interact with EPAC1 in cells. HEK293T cells stably transfected with EPAC1 were treated with hit compounds from the screen. EPAC1 was immunoprecipitated from cell lysates using an activation-selective antibody, visualized by western blotting and its levels were quantified densitometrically. Cyclic nucleotide EPAC1 agonist 2 was used as positive control. […] Data from at least three independent experiments are presented in the bar graph as mean ± SEM with significant increases in immunoprecipitated EPAC1 levels in comparison to vehicle-treated control indicated; ^∗∗ p < 0.01, ^∗∗∗ p < 0.001.
as §1

[3] = biological target: T1, EPAC1; experiment: Active Rap1 pull-down in U2OS cells stably transfected with EPAC1; set-up: expressed in transfected cells; host or cells: U2OS cells (from Professor Holger Rehmann, University of Utrecht); conditions: for Rap1 activation in EPAC1 cells: U2OS-EPAC1, 100 µM compound, 10 min, FIG. 7; for activation of EPAC1 by compound 2 (Rap1-GTP levels): U2OS-EPAC1 cells, in the presence of EPAC1 agonist 2 (007), FIG. 4
Protocol: Series Expansion and EPAC1 vs EPAC2 Selectivity. GEF assay was used to further screen all newly synthesis analogues at 10 µM, to identify additional activating compounds to expand the series of EPAC1 agonists (FIG. 6). […] Having now identified an expanded exemplary series of compounds as potential EPAC1 activators the ability of 25e, 25f, 25g, 25n and 25u to activate EPAC1 and EPAC2 in cellular Rap1 activation assays (FIG. 7) were compared. For these U2OS cells transfected with either EPAC1 or EPAC2 (FIG. 7) was used. […] Densitometry was carried out on all immunoblots and the ratio of EPAC1 to EPAC2 activation was calculated and presented in a bar graph in FIG. 8.
Active Rap1 Pull-down. U2OS cells (from Professor Holger Rehmann, University of Utrecht) stably transfected with EPAC1 or EPAC2 were cultured in 6-well plates in DMEM, high glucose, supplemented with 10% (v/v) FBS, 1% (v/v) GlutaMAX, 1% (v/v) Penicillin-Streptomycin and 2 mg/l puromycin (to ensure selection of stable transfectants). 80% confluent cells were starved in culture medium with reduced FBS concentration (0.5 %) for 16 h and then stimulated for 10 min with either vehicle, 100 µM of studied compounds, or 50 µM of 2 in case of U2OS-EPAC1 or 100 µM of compound 4 for U2OS-EPAC2. Cells were then rinsed with ice-cold PBS and lysed in 0.5 ml cell lysis buffer (Cell Signaling Technologies) supplemented with 10 mM MgCl2 and 1 mM PMSF, followed by clearing the lysates by centrifugation. Cell lysates were incubated for 1 h (4° C., gentle agitation) with 40 µg GST-RalGDS-RBD immobilized on Glutathione Sepharose 4B (GE Healthcare) to selectively capture GTP-bound Rap1. Later on, the glutathione resin was separated from supernatant by centrifugation, washed three times with cell lysis buffer, then resuspended in 2x SDS sample loading buffer and denatured for 5 min at 95° C.
as §1

Rap1 activation in EPAC1 cells [3]	activation of EPAC1 by compound 2 (Rap1-GTP levels) [3]	Compound	PKA activation (VASP phosphorylation) [1]	EPAC1 immunoprecipitation with activation-selective antibody [2]
activate EPAC1 in cells	enhanced	COc1ccc(S(=O)(=O)NC(=O)COc2ccc3ccccc3c2)c(OC)c1 [Compound 25g, N-((2,4-Dimethoxyphenyl)sulfonyl)-2-(naphthalen-2-yloxy)acetamide]	did not induce any PKA activation	significant increases in EPAC1 immunoprecipitation
activate EPAC1 in cells	enhanced	COc1ccc2ccc(OCC(=O)NS(=O)(=O)c3ccc(N)cc3OC)cc2c1 [Compound 25n, N-((4-Amino-2-methoxyphenyl)sulfonyl)-2-((7-methoxynaphthalen-2-yl)oxy)acetamide]	did not induce any PKA activation	significant increases in EPAC1 immunoprecipitation
activate EPAC1 in cells		COc1ccc2ccc(OCC(=O)NS(=O)(=O)c3ccc4ccccc4c3)cc2c1 [Compound 25q, 2-((7-Methoxynaphthalen-2-yl)oxy)-N-(naphthalen-2-ylsulfonyl)acetamide]	did not induce any PKA activation	significant increases in EPAC1 immunoprecipitation
